Key:
ZR-75-1 [1] = experiment: Cell viability assay, adherent cell line, 5 day Alamar Blue (Example 8): ZR-75-1; format: cell-based; conditions: Homo sapiens, 120 h, ZR-75-1, Breast Cancer Cell Viability
Method: (§1) Cell viability assays were performed on certain compounds of the disclosure, according to the following procedure.
(§2) Cell line specific media conditions used:
(§3) The procedure for adherent cell line compound screening was as follows:
(§4) • Cells were seeded in 96-well cell culture treated tissue culture plates: ZR-75-1, NIHOVCAR3, T47D, and LOVO cells 4000 cells/well; and HPAFII 3000 cell/well
(§5) Day 3: Compound Dilution and Dosing
(§6) • 5-fold serial dilution (8 point) of each compound in DMSO 0-25 mM in compound storage plates was prepared (stored at −80° C. if not to be used immediately). • Cells were rinsed with 1% FBS Media (appropriate to cell line as described above) and replaced with 87.5 μL media prior to dosing. HPAFII was screened in normal 10% FBS Media. • DMSO compound dilution series was diluted in 1% FBS media (appropriate to cell line as described above)—2 μL in 248 μL to give an 8× final concentration. • Cells were dosed 12.5 μL/well in triplicate to give final dose curved on cells 0-25 μM. • Media blank 100 μL/well×8 was set up. • All plates were incubated at 37° C.
(§7) Day 8: 5 Day Viability Assay
(§8) • Alamar Blue viability reagent was added (10 μL per well) and incubated for 3 hours at 37° C. prior to fluorescence detection (Ex560 nm/Em590 nm) on a Varioskan Lux multimode plate reader.
(§9) Results from cell viability assays are summarized in Table 23, wherein A represents IC50≤1 μM; B represents 1 μM<IC50≤8 μM; and C represents IC50>8 μM. Blank cells indicate that the compound was not tested in a particular assay.

ZR-75-1 [2] = experiment: ZR-75-1 compound screening cell viability, Alamar Blue (Example 6); format: cell-based; conditions: Homo sapiens, 96 h, ZR-75-1 cells, Media 1% FBS, read-out: ZR-75-1 Cell Viability, 4 Days: IC50
MM.1S = experiment: Cell viability assay, suspension cell line, 5 day Alamar Blue (Example 8): MM.1S; format: cell-based; conditions: Homo sapiens, MM1.S, 120 h, Multiple Myeloma (Steroid Sensitive) Cancer Cell
Method: as §1, §2
(§10) The procedure for suspension cell line compound screening was as follows:
(§11) Day 1: Cell Seeding and Compound Dosing
as §6, with “• Cells were seeded 2×10^5 in 96-well cell culture treated tissue culture plates: 87.5 μL/well; MM.1 S, MM,1R, NCIH510A. • 5-fold” for “• 5-fold”, “to dosing. • DMSO” for “to dosing. HPAFII was screened in normal 10% FBS Media. • DMSO”
(§12) Day 6: 5 Day Viability Assay
as §8, §9

NCIH510A = experiment: Cell viability assay, suspension cell line, 5 day Alamar Blue (Example 8): NCIH510A; format: cell-based; conditions: Homo sapiens, NCI-H510A, 120 h, Small Cell Lung Cancer Cell Line
Method: as §1, §2, §10, §11
as §6, with “• Cells were seeded 2×10^5 in 96-well cell culture treated tissue culture plates: 87.5 μL/well; MM.1 S, MM,1R, NCIH510A. • 5-fold” for “• 5-fold”, “to dosing. • DMSO” for “to dosing. HPAFII was screened in normal 10% FBS Media. • DMSO”
as §12, §8, §9

Human eIF4E (aa 28-217) = biological target: T1, Human eIF4E (aa 28-217) (Homo sapiens, UniProt P06730); experiment: 4G-eIF4E protein-based assay (TR-FRET, biotin labeled 4G2 peptide); format: binding
T1 construct: Human eIF4E (aa 28-217) with a C-terminal His-tag; made in house
T1 sequence (P06730 28-217): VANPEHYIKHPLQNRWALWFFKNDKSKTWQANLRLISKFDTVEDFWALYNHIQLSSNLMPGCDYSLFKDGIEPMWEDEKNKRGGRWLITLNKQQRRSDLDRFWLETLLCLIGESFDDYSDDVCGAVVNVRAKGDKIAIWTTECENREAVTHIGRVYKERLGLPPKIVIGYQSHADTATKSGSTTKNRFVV
Method: Human eIF4E ([…]) with a C-terminal His-tag was expressed in E. coli in inclusion bodies. The protein was solubilized with 8 M urea and purified under denaturing conditions using nickel-charged HisTrap HP columns (GE Healthcare). The purified protein was then refolded by diluting in 20 mM Hepes pH 7.0, 0.5 M NaCl, 1 mM DTT, […], 0.5 M arginine plus 6 M urea, and then dialyzing overnight into the same buffer without the urea. The protein was further dialyzed into 20 mM Hepes, pH 6.5, 50 mM NaCl, 1 mM EDTA, 1 mM DTT, and concentrated using Hitrap SP sepharose FF columns (GE Healthcare). The concentrated protein was dialyzed into 20 mM Hepes, pH 7.0, 0.5M NaCl, 5 mM DTT and […], and stored at -80° C. until use. Test compounds (3.43 mM stock in DMSO) were diluted 2-fold in series in DMSO (10 concentration points). Compound solutions (1.2 μL/well) were added into black 384-well polypropylene microplates (Matrix, Thermal Scientific). […] The samples were incubated at room temperature (20-23° C.) for 4 hours. Biotin labeled 4G2 peptide ([…])-NH2, 1.75 μM stock in DMSO) was diluted to 0.13 μM in Assay Buffer (without DTT) and 5 μL/well was added. The samples were incubated at room temperature for 20 min. Five microliters per well of 15 nM Eu-streptavidin (Eu-SA, Perkin Elmer) and 96 nM Allophycocyanin (APC)-anti His antibody (Columbia Biosciences) in Assay Buffer (without DTT) were then added and the samples were incubated at room temperature for 20 min. Assay signals were monitored by reading excitation at 340 nm and emission fluorescence at 615 nm and 665 nm on an Envision reader (Perkin Elmer). Normalized TR-FRET (time-resolved fluorescence resonance energy transfer) assay signal (Rn) was calculated by the formula: […] C=(Ac-Ba)/(Dc-Bd) • Where Ac is the fluorescence intensity of 1.5 nM Eu-SA in the assay buffer at 665 nm. IC50 values were calculated using xLFit program (IDBS).

T47D = experiment: Cell viability assay, adherent cell line, 5 day Alamar Blue (Example 8): T47D; format: cell-based; conditions: Homo sapiens, 120 h, Breast Cancer Cell Viability
Method: as §1, §2, §3, §4, §5, §6, §7, §8, §9

HPAFII = experiment: Cell viability assay, adherent cell line, 5 day Alamar Blue (Example 8): HPAFII; format: cell-based; conditions: Homo sapiens, HPAF-II, 120 h, Pancreatic Cancer Cell
Method: as §1, §2, §3, §4, §5, §6, §7, §8, §9

MM.1R = experiment: Cell viability assay, suspension cell line, 5 day Alamar Blue (Example 8): MM.1R; format: cell-based; conditions: 120 h, Multiple Myeloma (Steroid Resistant) Cancer Cell
Method: as §1, §2, §10, §11
as §6, with “• Cells were seeded 2×10^5 in 96-well cell culture treated tissue culture plates: 87.5 μL/well; MM.1 S, MM,1R, NCIH510A. • 5-fold” for “• 5-fold”, “to dosing. • DMSO” for “to dosing. HPAFII was screened in normal 10% FBS Media. • DMSO”
as §12, §8, §9

LoVo = experiment: Cell viability assay, adherent cell line, 5 day Alamar Blue (Example 8): LoVo; format: cell-based; conditions: Homo sapiens, 120 h, Colorectal Cancer Cell Viability
Method: as §1, §2, §3, §4, §5, §6, §7, §8, §9

NIHOVCAR3 = experiment: Cell viability assay, adherent cell line, 5 day Alamar Blue (Example 8): NIHOVCAR3; format: cell-based; conditions: Homo sapiens, OVCAR-3, 120 h, OVCAR3, Ovarian Cancer Cell
Method: as §1, §2, §3, §4, §5, §6, §7, §8, §9

MM.1S cells = experiment: 5 day viability assay in MM.1S cells, I-11 and dexamethasone (Example 7); format: cell-based; conditions: Homo sapiens, MM1.S, 120 h; MM.1S cells (steroid sensitive), 5 days, Alamar Blue; read-out: IC50 (μM), Viability Assessment (5 Days) in MM.1S Cells
Method: (§13) Compound I-11 was studied in the context of dexamethasone combinations, which is used clinically in early Multiple Myeloma prior to the emergence of steroid resistance and is a common backbone therapy. The MM.1S cell line is a steroid sensitive line, and the MM.1R line is the corresponding cell line which has been driven to steroid resistance. The procedure for these studies was as follows:
as §11
(§14) • Cells were seeded 2×10^5 in 96-well cell culture treated tissue culture plates: 87.5 μL/well; MM.1 S and MM.1R • A 5-fold serial dilution of each compound in DMSO (0-25 mM) was prepared in compound storage plates (stored at −80° C. if not to be used immediately). An 8-point curve was used for compound I-11, and a 6-point curve was used for dexamethasone (0-25 mM). • Cells were rinsed with 1% FBS Media and replaced with 87.5 μL media prior to dosing. • DMSO compound dilution series was diluted in 1% FBS media—2 μL compound in 123 μL media to give a 16× final concentration. Dosing across the plate columns 1-12 (compound I-11 0-400 μM), 6.25 μL 16× in media/well. Dosing down plate rows (columns 1-6 dexamethasone 0-400 μM), 6.25 μL 16× compound in media per well. • Cells were dosed with 12.5 μL for both compounds, with 2 replicates of dosing matrix per 96-well plate. Final volume cells and compound was 100 μL/well. • Media blank 100 μL/well×8 was set up. • All plates were incubated at 37° C.
as §12, §8

MM.1R cells = experiment: 5 day viability assay in MM.1R cells, I-11 and dexamethasone (Example 7); format: cell-based; conditions: 120 h; MM.1R cells (steroid resistant), 5 days, Alamar Blue; read-out: IC50 (μM), Viability Assessment (5 Days) in MM.1R Cells
Method: as §13, §11, §14, §12, §8

IC50 (MM.1S)	IC50 (Human eIF4E (aa 28-217))	IC50 (T47D)	IC50 (MM.1R)	IC50 (LoVo)	Compound	IC50 (ZR-75-1 [1])	IC50 (ZR-75-1 [2])	IC50 (NCIH510A)	IC50 (HPAFII)	IC50 (NIHOVCAR3)	also measured
–	–	–	–	–	COC(=O)c1cc(-c2cccs2)cnc1Nc1nc(C2=CCC(F)(F)CC2)c(CC(C)C)s1 [Compound I-5, methyl 2-((4-(4,4-difluorocyclohex-1-en-1-yl)-5-isobutylthiazol-2-yl)amino)-5-(thiophen-2-yl)nicotinate]	> 8 µM	> 8 µM	–	–	–	–
1 to 8 µM	0.5 to 1 µM	1 to 8 µM	1 to 8 µM	1 to 8 µM	C=C(C)c1nc(Nc2ncc(-c3cccs3)cc2C(=O)O)sc1CC(C)C [Compound I-13]	1 to 8 µM	1 to 8 µM	1 to 8 µM	1 to 8 µM	1 to 8 µM	–
≤ 1 µM	0.5 to 1 µM	≤ 1 µM	≤ 1 µM	≤ 1 µM	CC(C)Cc1sc(Nc2ncc(-c3cccs3)cc2C(=O)O)nc1C1CCC1 [Compound I-28]	≤ 1 µM	–	≤ 1 µM	≤ 1 µM	≤ 1 µM	–
–	–	–	–	–	CC(C)Cc1sc(Nc2ncc(-c3cccs3)cc2C(=O)O)nc1C(F)(F)F [Compound I-22]	1 to 8 µM	1 to 8 µM	–	–	–	–
–	–	–	–	–	C[C@@H]1C[C@H]2[C@@H]3CCC4=CC(=O)C=C[C@]4(C)[C@@]3(F)[C@@H](O)C[C@]2(C)[C@@]1(O)C(=O)CO [dexamethasone, reference compound]	–	–	–	–	–	IC50 (MM.1S cells): 0.0133 µM; IC50 (MM.1R cells): 30.9 µM
–	–	–	–	–	CC(C)c1cnc(Nc2ncc(-c3cccs3)cc2C(=O)O)s1 [Compound I-16]	> 8 µM	> 8 µM	–	–	–	–
–	–	–	–	–	CC(C)c1sc(Nc2ncc(-c3cccs3)cc2C(=O)O)nc1C1=CCCC1 [Compound I-9]	≤ 1 µM	< 1 µM	–	–	–	–
–	–	–	–	–	CC(C)Cc1sc(Nc2ncc(-c3cccs3)cc2C(=O)O)nc1C1CC1 [Compound I-10]	1 to 8 µM	1 to 8 µM	–	–	–	–
> 8 µM	≤ 0.5 µM	1 to 8 µM	> 8 µM	1 to 8 µM	Cc1ccc(-c2cnc(Nc3nc(C(C)(C)C)c(CC(C)C)s3)c(C(=O)O)c2)s1 [Compound I-24]	1 to 8 µM	–	1 to 8 µM	> 8 µM	1 to 8 µM	–
–	–	–	–	–	CC(C)c1sc(Nc2ncc(-c3cccs3)cc2C(=O)O)nc1C(C)(C)C [Compound I-25]	1 to 8 µM	–	–	–	–	–

— patent publication US20240208961A1, “EIF4E INHIBITORS AND USES THEREOF” (PIC Therapeutics, Inc., priority 2022, published 2024)
